DBAASP
Converted amounts (≈) assume the structure as drawn. “And” between values parts separate entries of the source, which are not always exact repeats. Identical values can stand only once. Each block holds one compound with its values, some of them ahead of it.

What was measured:
Experiment in all cases: ≥ marks a high value that may be exact or a test limit, other limits are often not marked, values filed in µg/mL are converted to µM
[1] = system: Psychrobacter faecalis X29
[2] = system: Enterococcus faecalis 981
[3] = system: Candida glabrata 090902
[4] = system: Staphylococcus aureus ATCC 25923
[5] = system: Nocardia asteroides 201118
[6] = system: Escherichia coli DH5alpha
[7] = system: Staphylococcus aureus ATCC 9144
[8] = system: Escherichia coli ATCC 10536
[9] = system: Cronobacter sakazakii ATCC BAA-894
[10] = system: Salmonella enterica subsp. enterica serovar Typhimurium LT2
[11] = system: Staphylococcus aureus Newman
[12] = system: Staphylococcus aureus RN4220
[13] = system: Klebsiella pneumoniae NCIMB 13218
[14] = system: Escherichia coli NCIMB 11843
[15] = system: Cronobacter sakazakii DSM 4485
[16] = system: Staphylococcus aureus RF122
[17] = system: Cronobacter sakazakii DPC 6440
[18] = system: Cronobacter muytjensii ATCC 51329
[19] = system: Staphylococcus aureus NCTC 8325-4
[20] = system: Pseudomonas fluorescens NCIMB 9046
[21] = system: Staphylococcus aureus SA113
[22] = system: Pseudomonas corrugata DSM 7228
[23] = system: Pectobacterium carotovorum subsp. carotovorum DSM 30168
[24] = system: Clavibacter michiganensis subsp. michiganensis DSM 46294
[25] = system: Pseudomonas syringae pv. syringae DSM 10604
[26] = system: Staphylococcus aureus 90857
[27] = system: Pseudomonas syringae pv. tomato DC3000
[28] = system: Xanthomonas vesicatoria DSM 50861
[29] = system: Acinetobacter baumannii
[30] = system: Escherichia coli 170
[31] = system: Pseudomonas aeruginosa 4677
[32] = system: Enterobacter cloacae 2524
[33] = system: Klebsiella pneumoniae 913
[34] = system: Escherichia coli ATCC 25922
[35] = system: Enterobacter cloacae 6780
[36] = system: Enterococcus faecalis ATCC 19433
[37] = system: Pseudomonas aeruginosa
[38] = system: Staphylococcus aureus
[39] = system: Mycobacterium tuberculosis H37Rv

MIC [1]: ≥ 50 µM
MIC [2]: 3.1 µM (≈ 5.16 µg/mL)
MIC [3]: ≥ 50 µM
MIC [4]: 3.1 µM (≈ 5.16 µg/mL)
MIC [5]: 3.1 µM (≈ 5.16 µg/mL)
SMILES: CC[C@H](C)[C@H](NC(=O)[C@@H](NC(=O)[C@H](CCCCN)NC(=O)CNC(=O)[C@H](CC(C)C)NC(=O)[C@@H](NC(=O)[C@@H]1CCCN1C(=O)[C@H](CC(C)C)NC(=O)[C@@H](N)Cc1ccccc1)C(C)C)C(C)C)C(=O)N[C@@H](CCCCN)C(=O)N[C@@H](CC(C)C)C(=O)N[C@H](C(=O)NCC(=O)NCC(=O)N[C@@H](CC(C)C)C(=O)N[C@@H](CC(C)C)C(N)=O)C(C)C [FLPVLGKVIKLVGGLL]

MIC [6]: 2.9 µM (≈ 9.11 µg/mL)
MIC [7]: 2.7 µM (≈ 8.48 µg/mL)
MIC [8]: 2.7 µM and 7.2 µM
SMILES: CC[C@H](C)[C@H](NC(=O)[C@@H](NC(=O)[C@@H]1CCCN1C(=O)[C@H](CO)NC(=O)[C@H](C)NC(=O)[C@H](CCCCN)NC(=O)[C@H](CCCCN)NC(=O)[C@H](Cc1ccccc1)NC(=O)[C@H](C)NC(=O)[C@H](CCCCN)NC(=O)[C@H](CCCCN)NC(=O)[C@H](Cc1ccccc1)NC(=O)[C@H](CCCCN)NC(=O)[C@H](CCCCN)NC(=O)[C@H](CCCN=C(N)N)NC(=O)[C@H](Cc1ccccc1)NC(=O)[C@H](CCCN=C(N)N)NC(=O)[C@H](CCCCN)NC(=O)[C@H](Cc1ccccc1)NC(=O)[C@H](CCCN=C(N)N)NC(=O)CN)C(C)C)C(=O)N1CCC[C@H]1C(=O)N[C@@H](CC(C)C)C(=O)N[C@@H](CC(C)C)C(=O)N[C@@H](Cc1cnc[nH]1)C(=O)N[C@@H](CC(C)C)C(N)=O [GRFKRFRKKFKKAFKKASPVIPLLHL]

MIC [9]: ≥ 2500 µM
MIC [10]: ≥ 2500 µM
MIC [11]: ≥ 2500 µM
MIC [12]: ≥ 2500 µM
MIC [13]: ≥ 2500 µM
MIC [14]: ≥ 2500 µM
MIC [15]: ≥ 2500 µM
MIC [16]: ≥ 2500 µM
MIC [17]: ≥ 2500 µM
MIC [18]: ≥ 2500 µM
MIC [19]: ≥ 2500 µM
MIC [20]: ≥ 2500 µM
MIC [21]: ≥ 2500 µM
SMILES: CC[C@H](C)[C@H](N)C(=O)N[C@@H](CCCCN)C(=O)N[C@@H](Cc1cnc[nH]1)C(=O)N[C@@H](CCC(N)=O)C(=O)NCC(=O)N[C@@H](CC(C)C)C(=O)N1CCC[C@H]1C(=O)N[C@@H](CCC(N)=O)C(=O)N[C@@H](CCC(=O)O)C(=O)N[C@@H](CCC(=O)O)C(=O)O [IKHQGLPQEE]

MIC [22]: 0.977 µM (≈ 2.5 µg/mL)
MIC [23]: 3.91 µM (≈ 10 µg/mL)
MIC [24]: 0.0391 µM (≈ 0.1 µg/mL)
MIC [25]: 0.391 µM (≈ 1 µg/mL)
MIC [26]: 2 µM (≈ 5.11 µg/mL)
MIC [27]: 0.977 µM (≈ 2.5 µg/mL)
MIC [28]: 0.0391 µM (≈ 0.1 µg/mL)
SMILES: CC[C@H](C)[C@H](NC(=O)[C@H](CC(C)C)NC(=O)[C@H](CCCCN)NC(=O)[C@@H](NC(=O)[C@@H](NC(=O)[C@H](CC(C)C)NC(=O)[C@H](CCCCN)NC(=O)[C@H](CC(C)C)NC(=O)[C@@H](NC(=O)[C@H](CCCCN)NC(=O)[C@@H](NC(=O)[C@H](CC(C)C)NC(=O)[C@H](CCCCN)NC(=O)[C@H](CCCN=C(N)N)NC(=O)[C@H](CCCN=C(N)N)NC(=O)[C@@H](N)CCCCN)[C@@H](C)CC)[C@@H](C)CC)[C@@H](C)CC)[C@@H](C)CC)C(=O)N[C@@H](CCCN=C(N)N)C(=O)N[C@@H](CCCCN)C(=O)N[C@@H](CCCCN)C(=O)N[C@@H](CCCN=C(N)N)C(N)=O [KRRKLIKILKLIIKLIRKKR]

MIC [29]: ≥ 50 µM
MIC [30]: ≥ 50 µM
MIC [31]: ≥ 50 µM
MIC [32]: 12.5 µM (≈ 24.6 µg/mL)
MIC [33]: ≥ 50 µM
MIC [34]: > 50 µM
MIC [35]: ≥ 50 µM
SMILES: CC(C)C[C@H](NC(=O)[C@H](CCCCN)NC(=O)[C@H](CCC(N)=O)NC(=O)[C@@H](NC(=O)[C@@H](NC(=O)[C@H](CC(N)=O)NC(=O)[C@H](C)NC(=O)[C@@H](NC(=O)[C@@H](N)CCCCN)C(C)C)[C@@H](C)O)C(C)C)C(=O)N[C@@H](CCCCN)C(=O)N[C@@H](CCCN=C(N)N)C(=O)N[C@@H](CCCCN)C(=O)N[C@@H](C)C(=O)N[C@@H](CCCCN)C(=O)N[C@@H](CC(N)=O)C(=O)N[C@@H](C)C(=O)N[C@H](C(=O)N[C@@H](C)C(=O)O)C(C)C [KVANTVQKLKRKAKNAVA]

MIC [22]: 1.63 µM (≈ 2.5 µg/mL)
MIC [23]: 6.51 µM (≈ 9.99 µg/mL)
MIC [24]: 3.25 µM (≈ 5 µg/mL)
MIC [25]: 0.163 µM (≈ 0.25 µg/mL)
MIC [26]: ≥ 62.5 µM
MIC [27]: 6.51 µM (≈ 9.99 µg/mL)
MIC [28]: 1.63 µM (≈ 2.5 µg/mL)
SMILES: CC[C@H](C)[C@H](NC(=O)[C@H](CC(C)C)NC(=O)[C@H](CCCN=C(N)N)NC(=O)[C@H](CCCCN)NC(=O)[C@@H](NC(=O)[C@@H](NC(=O)[C@H](CCCCN)NC(=O)[C@@H](NC(=O)[C@H](CCCCN)NC(=O)[C@H](CCCCN)NC(=O)[C@H](CCCCN)NC(=O)[C@@H](N)CCCN=C(N)N)[C@@H](C)CC)[C@@H](C)CC)[C@@H](C)CC)C(N)=O [RKKKIKIIKRLI]

MIC [9]: ≥ 2500 µM
MIC [10]: ≥ 2500 µM
MIC [11]: ≥ 2500 µM
MIC [12]: ≥ 2500 µM
MIC [13]: ≥ 2500 µM
MIC [14]: ≥ 2500 µM
MIC [15]: ≥ 1250 µM
MIC [16]: ≥ 2500 µM
MIC [17]: ≥ 1250 µM
MIC [18]: ≥ 1250 µM
MIC [19]: ≥ 1250 µM
MIC [20]: ≥ 2500 µM
MIC [21]: ≥ 2500 µM
SMILES: CC(C)C[C@H](NC(=O)[C@H](CC(C)C)NC(=O)[C@H](CC(N)=O)NC(=O)[C@H](CCC(=O)O)NC(=O)[C@H](CC(N)=O)NC(=O)[C@H](C)NC(=O)[C@@H](N)C(C)C)C(=O)N[C@@H](CCCN=C(N)N)C(=O)O [VANENLLR]

MIC [36]: ≥ 38.7 µM
MIC [37]: 11.5 µM (≈ 19 µg/mL)
MIC [38]: 3.02 µM (≈ 5 µg/mL)
MIC [4]: 77.4 µM (≈ 128 µg/mL)
MIC [39]: 17.7 µM (≈ 29.3 µg/mL)
SMILES: CC[C@H](C)[C@H](NC(=O)[C@H](CCCN=C(N)N)NC(=O)[C@H](Cc1c[nH]c2ccccc12)NC(=O)[C@@H](NC(=O)[C@@H](NC(=O)[C@H](CC(C)C)NC(=O)[C@H](Cc1c[nH]c2ccccc12)NC(=O)[C@H](CCCN=C(N)N)NC(=O)[C@H](CCC(N)=O)NC(=O)[C@@H](N)C(C)C)[C@@H](C)CC)C(C)C)C(=O)N[C@@H](CCCN=C(N)N)C(=O)N[C@@H](CCCCN)C(N)=O [VQRWLIVWRIRK]
